Measured values published in patent US9890166B2, “Imidazopyrrolidine derivatives and their use in the treatment of disease” (NOVARTIS AG, priority 2013, dated 2018).

Tests used:
K-562 cells = assay: Cell growth inhibition assay (CellTiter-Glo), K-562; conditions: for GI50: Homo sapiens, K562, read-out: K-562 GI50; for K-562 TGI: K-562 cells, total growth inhibition, CellTiter-Glo;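 as to all read-outs here: cellular ATP measured by luminescence after 4 days of exposure, 3-fold dilution series from 10 µM, DMSO vehicle-treated cells define 100%, cell-free medium wells −100%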
BRD4 (His-Brd4(44-477)) = BRD4 (His-Brd4(44-477)) (Homo sapiens (Human), UniProt O60885); assay: TR-FRET in-vitro binding assay for BRD4; conditions: single determination or n ≧ 2 independent determinations, read-out: Biochemical IC50 BRD4
How it was run: (§1)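 TR-FRET binding with His-tagged bromodomain constructs, 8-point compound dilutions from 10 mM DMSO stocks. Reactions incubated 35 min at 30° C in 13.55 μL, read on an EnVision multilabel reader.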

BRD3 (His-Brd3(20-477)) = BRD3 (His-Brd3(20-477)) (Homo sapiens (Human), UniProt Q15059); assay: TR-FRET in-vitro binding assay for BRD3; conditions: single determination or n ≧ 2 independent determinations, read-out: Biochemical IC50 BRD3
BRD3 (His-Brd3(20-477)), sequence (Q15059 20-477): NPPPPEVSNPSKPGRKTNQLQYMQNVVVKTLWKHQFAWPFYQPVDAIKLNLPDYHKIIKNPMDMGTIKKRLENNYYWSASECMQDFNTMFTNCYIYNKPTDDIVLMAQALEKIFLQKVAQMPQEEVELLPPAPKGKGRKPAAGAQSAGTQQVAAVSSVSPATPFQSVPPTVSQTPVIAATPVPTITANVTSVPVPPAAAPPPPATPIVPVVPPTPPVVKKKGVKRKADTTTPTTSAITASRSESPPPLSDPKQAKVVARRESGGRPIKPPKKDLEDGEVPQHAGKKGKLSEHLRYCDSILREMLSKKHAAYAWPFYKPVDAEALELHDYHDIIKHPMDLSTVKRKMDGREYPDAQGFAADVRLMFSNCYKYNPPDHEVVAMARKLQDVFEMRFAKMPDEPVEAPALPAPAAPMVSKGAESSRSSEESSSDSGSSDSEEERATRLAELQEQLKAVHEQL
How it was run: as §1

[1] = target: CREBBP bromodomain (His-CREBBP(1081-1197)) (Homo sapiens (Human), UniProt Q92793); assay: AlphaScreen in-vitro binding assay for CREBBP; conditions: single determination or n ≧ 2 independent determinations, read-out: Biochemical IC50 CREBBP
CREBBP bromodomain (His-CREBBP(1081-1197)), sequence (Q92793 1081-1197): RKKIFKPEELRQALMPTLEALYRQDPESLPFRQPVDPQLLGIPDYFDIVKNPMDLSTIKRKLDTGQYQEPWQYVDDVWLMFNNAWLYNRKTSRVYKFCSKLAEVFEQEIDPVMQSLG
How it was run: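 Reactions at 30 °C for 35 min, then Ni-chelate acceptor and streptavidin donor beads in HEPES pH 7.5, NaCl, Tween20, BSA, 60 min at room temperature. Eight-point compound series; IC50 by non-linear regression of percent inhibition.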

MV-4-11 cells = assay: Cell growth inhibition assay (CellTiter-Glo), MV-4-11; conditions: for GI50: Homo sapiens, MV4-11, read-out: MV-4-11 GI50; for MV-4-11 TGI: MV-4-11 cells, total growth inhibition, CellTiter-Glo;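 as to all read-outs here: cellular ATP luminescence after 4 days, 3-fold dilution series from 10 µM top dose, vehicle (0.1% DMSO) set to 100%, cell-free medium set to −100%, day 0 corrected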
THP-1 cells = assay: Cell growth inhibition assay (CellTiter-Glo), THP-1; conditions: for GI50: Homo sapiens, THP-1, read-out: THP-1 GI50; for THP-1 TGI: THP-1 cells, total growth inhibition, CellTiter-Glo;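 as to all read-outs here: viability read as cellular ATP luminescence after 4 days, 3-fold dilution series from 10 µM, DMSO vehicle-treated cells taken as 100%, cell-free medium wells as −100%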
BRD2 (His-Brd2(60-472)) = BRD2 (His-Brd2(60-472)) (Homo sapiens (Human), UniProt P25440); assay: TR-FRET in-vitro binding assay for BRD2; conditions: single determination or n ≧ 2 independent determinations, read-out: Biochemical IC50 BRD2
BRD2 (His-Brd2(60-472)), sequence (P25440 60-472): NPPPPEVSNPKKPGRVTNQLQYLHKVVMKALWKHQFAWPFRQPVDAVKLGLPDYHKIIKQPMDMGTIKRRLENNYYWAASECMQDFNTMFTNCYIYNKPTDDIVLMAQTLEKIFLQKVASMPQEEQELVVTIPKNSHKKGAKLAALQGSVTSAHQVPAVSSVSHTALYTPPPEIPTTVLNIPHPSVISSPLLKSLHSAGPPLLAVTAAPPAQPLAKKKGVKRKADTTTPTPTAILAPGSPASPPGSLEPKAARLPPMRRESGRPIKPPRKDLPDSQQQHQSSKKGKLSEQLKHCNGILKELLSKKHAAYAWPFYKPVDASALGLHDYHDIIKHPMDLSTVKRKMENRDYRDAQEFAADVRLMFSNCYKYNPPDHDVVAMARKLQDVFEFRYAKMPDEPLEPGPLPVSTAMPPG
Procedure: TR-FRET In-Vitro Binding Assays for BRD2, BRD3, and BRD4:
All assays were performed in 384 well microtiter plates. Each assay plate contained 8-point serial dilutions for 40 test compounds, plus 16 high- and 16 low controls. Liquid handling and incubation steps were done on an Innovadyne Nanodrop Express equipped with a robotic arm (Thermo CatX, Perkin Elmer/Caliper Twister II) and an incubator (Liconic STX40, Thermo Cytomat 2C450). The assay plates were prepared by addition of 50 nl per well of compound solution in 90% DMSO HummingBird nanodispenser (Zinsser Analytic). […] Reactions were incubated at 30° C. for 35 minutes. […] After 35 minutes incubation at 30° C., plates were measured in a Perkin Elmer EnVision multilabel reader.
Preparation of Compound Dilutions
Test compounds were dissolved in DMSO (10 mM) and transferred into 1.4 mL flat bottom or V-shaped Matrix tubes carrying a unique 2D matrix. The stock solutions were stored at […] if not used immediately. For the test procedure the vials were defrosted and identified by a scanner whereby a working sheet was generated that guided the subsequent working steps.
Compound dilutions were made in 96 well plates. This format enabled the assay of maximally 40 individual test compounds at 8 concentrations (single points) including 4 reference compounds, if desired (known BET inhibitors from the prior art, for this and other assays of the type disclosed herein). The dilution protocol included the production of “pre-dilution plates”, “master plates” and “assay plates”.
Pre-Dilution Plates: 96 polypropylene well plates were used as pre-dilution plates. A total of 4 pre-dilution plates were prepared including 10 test compounds each on the plate positions A1-A10, one standard compound at A11 and one DMSO control at A12. All dilution steps were done on a HamiltonSTAR robot.
These plates were used directly for the assay which was performed in a total volume of 13.55 μL.

| GI50 (K-562 cells) | IC50 (BRD4 (His-Brd4(44-477))) | IC50 (BRD3 (His-Brd3(20-477))) | IC50 [1] | GI50 (MV-4-11 cells) | GI50 (THP-1 cells) | IC50 (BRD2 (His-Brd2(60-472))) | Compound | K-562 TGI (K-562 cells) | MV-4-11 TGI (MV-4-11 cells) | THP-1 TGI (THP-1 cells) |
| --- | --- | --- | --- | --- | --- | --- | --- | --- | --- | --- |
| 908 nM | 117 nM | 93.7 nM | 3400 nM | 97.9 nM | 208 nM | 104 nM | Cc1cc(N2C(=O)c3nc(C4CC4)n(C(C)C)c3C2c2ccc(Cl)cc2)cn(C)c1=O (stereo not shown) [Example 28, 6-(4-chlorophenyl)-2-cyclopropyl-5-(1,5-dimethyl-6-oxo-1,6-dihydropyridin-3-yl)-1-isopropyl-5,6-dihydropyrrolo[3,4-d]imidazol-4(1H)-one] | >10000 nM | 136 nM | 384 nM |
| 219 nM | 65.2 nM | 76.5 nM | 1670 nM | 36.6 nM | 64.9 nM | 98.2 nM | COc1ncc(-c2nc3c(n2C(C)C)C(c2ccc(Cl)cc2)N(c2cc(C)c4onc(C)c4c2)C3=O)c(OC)n1 (stereo not shown) [Example 34, 6-(4-chlorophenyl)-2-(2,4-dimethoxypyrimidin-5-yl)-5-(3,7-dimethylbenzo[d]-isoxazol-5-yl)-1-isopropyl-5,6-dihydropyrrolo[3,4-d]imidazol-4(1H)-one] | >10000 nM | 76.6 nM | 109 nM |
| 946 nM | 21 nM | 35 nM | > 37000 nM | 226 nM | 289 nM | 43 nM | COc1ccc(-c2nc3c(n2C(C)C)C(c2ccc(Cl)cc2)N(c2cc(C)c4onc(C)c4c2)C3=O)cn1 (stereo not shown) [Example 35, 6-(4-chlorophenyl)-5-(3,7-dimethylbenzo[d]isoxazol-5-yl)-1-isopropyl-2-(6-methoxypyridin-3-yl)-5,6-dihydropyrrolo[3,4-d]imidazol-4(1H)-one] | >10000 nM | 384 nM | 462 nM |
| 250 nM | 150 nM | 160 nM | 2500 nM | 59.8 nM | 115 nM | 164 nM | CCCn1c(-c2cc(OC)ncc2F)nc2c1C(=O)N(c1cc(C)c(=O)n(C)c1)C2c1ccc(Cl)cc1 (stereo not shown) [Example 36, 6-(4-chlorophenyl)-5-(1,5-dimethyl-6-oxo-1,6-dihydropyridin-3-yl)-2-(5-fluoro-2-methoxypyridin-4-yl)-3-propyl-5,6-dihydropyrrolo[3,4-d]imidazol-4(3H)-one] | >10000 nM | 104 nM | 235 nM |
| 320 nM | 166 nM | 164 nM | 4100 nM | 66.9 nM | 100 nM | 274 nM | CCCn1c(-c2cncc(C#N)c2)nc2c1C(=O)N(c1cc(C)c(=O)n(C)c1)C2c1ccc(Cl)cc1 (stereo not shown) [Example 37, 5-(4-(4-chlorophenyl)-5-(1,5-dimethyl-6-oxo-1,6-dihydropyridin-3-yl)-6-oxo-1-propyl-1,4,5,6-tetrahydropyrrolo[3,4-d]imidazol-2-yl)nicotinonitrile] | >10000 nM | 105 nM | 195 nM |
| 351 nM | 27 nM | 33 nM | 3050 nM | 10.5 nM | 56.5 nM | 41 nM | Cc1cc(N2C(=O)c3nc(C4=CCOC4)n(C(C)C)c3[C@H]2c2ccc(Cl)cc2)cn2c(C)nnc12 [Example 48, (R)-6-(4-chlorophenyl)-2-(2,5-dihydrofuran-3-yl)-5-(3,8-dimethyl-[1,2,4]triazolo[4,3-a]pyridin-6-yl)-1-isopropyl-5,6-dihydropyrrolo[3,4-d]imidazol-4(1H)-one] | >10000 nM | 24.5 nM | 109 nM |
| 2040 nM | 35 nM | 42 nM | 2200 nM | 191 nM | 989 nM | 56 nM | Cc1cc(N2C(=O)c3nc(C4=CCNCC4)n(C(C)C)c3C2c2ccc(Cl)cc2)cn2c(C)nnc12 (stereo not shown) [Example 49, 6-(4-Chlorophenyl)-5-(3,8-dimethyl-[1,2,4]triazolo[4,3-a]pyridin-6-yl)-1-isopropyl-2-(1,2,3,6-tetrahydropyridin-4-yl)-5,6-dihydropyrrolo[3,4-d]imidazol-4(1H)-one] | >10000 nM | 320 nM | 1470 nM |
| 575 nM | 27 nM | 23.5 nM | 5400 nM | 28.8 nM | 233 nM | 41 nM | Cc1cc(N2C(=O)c3nc(C4=CCN(C)CC4)n(C(C)C)c3C2c2ccc(Cl)cc2)cn2c(C)nnc12 (stereo not shown) [Example 50, 6-(4-Chlorophenyl)-5-(3,8-dimethyl-[1,2,4]triazolo[4,3-a]pyridin-6-yl)-1-isopropyl-2-(1-methyl-1,2,3,6-tetrahydropyridin-4-yl)-5,6-dihydropyrrolo[3,4-d]imidazol-4(1H)-one] | >10000 nM | 57.1 nM | 495 nM |
| 439 nM | 19.5 nM | 25 nM | 6400 nM | 22.4 nM | 212 nM | 40 nM | Cc1cc(N2C(=O)c3nc(C4=CC(C)(C)NC(C)(C)C4)n(C(C)C)c3C2c2ccc(Cl)cc2)cn2c(C)nnc12 (stereo not shown) [Example 51, 6-(4-Chlorophenyl)-5-(3,8-dimethyl-[1,2,4]triazolo[4,3-a]pyridin-6-yl)-1-isopropyl-2-(2,2,6,6-tetramethyl-1,2,3,6-tetrahydropyridin-4-yl)-5,6-dihydropyrrolo[3,4-d]imidazol-4(1H)-one] | >10000 nM | 47.9 nM | 612 nM |
| 366 nM | 55 nM | 38 nM | 10400 nM | 23.8 nM | 99.5 nM | 78 nM | Cc1cc(N2C(=O)c3nc(C)n(C(C)C)c3C2c2ccc(Cl)cc2)cn2c(C)nnc12 (stereo not shown) [Example 58, 6-(4-chlorophenyl)-5-(3,8-dimethyl-[1,2,4]triazolo[4,3-a]pyridin-6-yl)-1-isopropyl-2-methyl-5,6-dihydropyrrolo[3,4-d]imidazol-4(1H)-one] | >10000 nM | 48.75 nM | 207.5 nM |
| 117 nM | 30 nM | 34 nM | 5700 nM | 17.8 nM | 41 nM | 48 nM | Cc1cc(N2C(=O)c3nc(C)n(C(C)C)c3[C@H]2c2ccc(Cl)cc2)cn2c(C)nnc12 [Example 59, (R)-6-(4-chlorophenyl)-5-(3,8-dimethyl-[1,2,4]triazolo[4,3-a]pyridin-6-yl)-1-isopropyl-2-methyl-5,6-dihydropyrrolo[3,4-d]imidazol-4(1H)-one] | >10000 nM | 34.9 nM | 114 nM |
| 280 nM | 31.5 nM | 53.5 nM | 21900 nM | 34 nM | 69 nM | 96 nM | COc1cc(N2C(=O)c3nc(C4=CCOCC4)n(C(C)C)c3C2c2ccc(Cl)cc2)cc2c1nnn2C (stereo not shown) [Example 60] | >10000 nM | 63.1 nM | 132 nM |
| 116 nM | 24.5 nM | 51.5 nM | 17900 nM | 28.2 nM | 65.4 nM | 100 nM | COc1cc(N2C(=O)c3nc(C4=CCOCC4)n(C(C)C)c3[C@H]2c2ccc(Cl)cc2)cc2c1nnn2C [Example 61] | >10000 nM | 55.1 nM | 149 nM |
